# Assays:
# CDK5 (human) = CDK5 (human) (UniProt Q00535); test: KINOMEscan competition binding; settings: compound 10.0 µM
# HIPK3 (human) = HIPK3 (human) (UniProt Q9H422); test: KINOMEscan competition binding; settings: compound 10.0 µM
# EPHB4 (human) = EPHB4 (human) (UniProt P54760); test: KINOMEscan competition binding; settings: compound 10.0 µM
# [1] = system: ABL1 (human), P00519 [E255K]; test: KINOMEscan competition binding; settings: compound 10.0 µM
# STK17B (human) = STK17B (human) (UniProt O94768); test: KINOMEscan competition binding; settings: compound 10.0 µM
# STK17B (human), sequence (O94768 whole entry, looked up): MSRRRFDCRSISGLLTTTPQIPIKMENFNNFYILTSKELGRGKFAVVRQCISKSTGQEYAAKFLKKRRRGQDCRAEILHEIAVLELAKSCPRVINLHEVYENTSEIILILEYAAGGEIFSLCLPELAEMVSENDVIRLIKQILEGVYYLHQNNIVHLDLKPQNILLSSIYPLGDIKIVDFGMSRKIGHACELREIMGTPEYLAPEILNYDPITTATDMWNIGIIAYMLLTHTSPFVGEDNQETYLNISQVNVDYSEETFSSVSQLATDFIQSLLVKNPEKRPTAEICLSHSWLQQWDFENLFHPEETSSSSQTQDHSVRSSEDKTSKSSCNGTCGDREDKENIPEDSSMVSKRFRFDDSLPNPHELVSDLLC
# NEK9 (human) = NEK9 (human) (UniProt Q8TD19); test: KINOMEscan competition binding; settings: compound 10.0 µM
# PRKCQ (human) = PRKCQ (human) (UniProt Q04759); test: KINOMEscan competition binding; settings: compound 10.0 µM
# MAP3K9 (human) = MAP3K9 (human) (UniProt P80192); test: KINOMEscan competition binding; settings: compound 10.0 µM
# CDK14 (human) = CDK14 (human) (UniProt O94921); test: KINOMEscan competition binding; settings: compound 10.0 µM
# HCK (human) = HCK (human) (UniProt P08631); test: KINOMEscan competition binding; settings: compound 10.0 µM
# HCK (human), sequence (P08631 whole entry, looked up): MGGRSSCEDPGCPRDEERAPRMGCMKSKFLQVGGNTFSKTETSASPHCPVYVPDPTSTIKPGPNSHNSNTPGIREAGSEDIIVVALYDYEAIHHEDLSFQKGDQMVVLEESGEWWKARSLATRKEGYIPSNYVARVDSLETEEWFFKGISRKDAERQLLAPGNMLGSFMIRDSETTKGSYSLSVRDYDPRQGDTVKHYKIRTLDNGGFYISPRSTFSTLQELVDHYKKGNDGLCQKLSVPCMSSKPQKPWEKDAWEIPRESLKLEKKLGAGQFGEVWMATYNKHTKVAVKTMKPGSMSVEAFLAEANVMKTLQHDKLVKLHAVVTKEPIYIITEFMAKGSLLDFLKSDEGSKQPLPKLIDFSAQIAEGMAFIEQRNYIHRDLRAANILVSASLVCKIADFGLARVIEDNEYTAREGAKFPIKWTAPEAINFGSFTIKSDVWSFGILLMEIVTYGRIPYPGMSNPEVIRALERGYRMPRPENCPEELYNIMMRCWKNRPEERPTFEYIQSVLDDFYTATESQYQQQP
# EIF2AK2 (human) = EIF2AK2 (human) (UniProt P19525); test: KINOMEscan competition binding; settings: compound 10.0 µM
# NUAK2 (human) = NUAK2 (human) (UniProt Q9H093); test: KINOMEscan competition binding; settings: compound 10.0 µM
# PRKACB (human) = PRKACB (human) (UniProt P22694); test: KINOMEscan competition binding; settings: compound 10.0 µM
# [2] = system: ABL1 (human), P00519 [M351T]; test: KINOMEscan competition binding; settings: compound 10.0 µM
# DCLK1 (human) = DCLK1 (human) (UniProt O15075); test: KINOMEscan competition binding
# DCLK1 (human), sequence (O15075 whole entry, looked up): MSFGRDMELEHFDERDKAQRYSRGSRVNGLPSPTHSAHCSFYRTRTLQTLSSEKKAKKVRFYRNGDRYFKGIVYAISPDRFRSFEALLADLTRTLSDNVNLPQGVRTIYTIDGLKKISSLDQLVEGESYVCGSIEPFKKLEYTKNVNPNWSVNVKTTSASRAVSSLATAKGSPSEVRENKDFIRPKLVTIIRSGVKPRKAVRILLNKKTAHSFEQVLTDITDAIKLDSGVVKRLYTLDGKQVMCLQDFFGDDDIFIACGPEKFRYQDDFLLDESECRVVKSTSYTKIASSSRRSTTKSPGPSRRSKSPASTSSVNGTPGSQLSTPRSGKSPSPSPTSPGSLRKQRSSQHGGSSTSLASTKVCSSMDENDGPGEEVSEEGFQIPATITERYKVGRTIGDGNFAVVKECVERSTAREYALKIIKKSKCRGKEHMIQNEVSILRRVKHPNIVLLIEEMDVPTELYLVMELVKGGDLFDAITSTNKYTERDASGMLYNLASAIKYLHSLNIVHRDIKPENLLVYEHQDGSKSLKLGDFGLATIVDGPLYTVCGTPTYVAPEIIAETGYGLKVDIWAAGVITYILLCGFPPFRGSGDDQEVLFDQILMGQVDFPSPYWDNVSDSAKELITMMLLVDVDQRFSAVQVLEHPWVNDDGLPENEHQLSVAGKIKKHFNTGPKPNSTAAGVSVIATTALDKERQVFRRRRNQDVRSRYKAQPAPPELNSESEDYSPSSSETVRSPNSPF
# MAP4K4 (human) = MAP4K4 (human) (UniProt O95819); test: KINOMEscan competition binding; settings: compound 10.0 µM
# ERBB3 (human) = ERBB3 (human) (UniProt P21860); test: KINOMEscan competition binding; settings: compound 10.0 µM
# ERBB3 (human), sequence (P21860 whole entry, looked up): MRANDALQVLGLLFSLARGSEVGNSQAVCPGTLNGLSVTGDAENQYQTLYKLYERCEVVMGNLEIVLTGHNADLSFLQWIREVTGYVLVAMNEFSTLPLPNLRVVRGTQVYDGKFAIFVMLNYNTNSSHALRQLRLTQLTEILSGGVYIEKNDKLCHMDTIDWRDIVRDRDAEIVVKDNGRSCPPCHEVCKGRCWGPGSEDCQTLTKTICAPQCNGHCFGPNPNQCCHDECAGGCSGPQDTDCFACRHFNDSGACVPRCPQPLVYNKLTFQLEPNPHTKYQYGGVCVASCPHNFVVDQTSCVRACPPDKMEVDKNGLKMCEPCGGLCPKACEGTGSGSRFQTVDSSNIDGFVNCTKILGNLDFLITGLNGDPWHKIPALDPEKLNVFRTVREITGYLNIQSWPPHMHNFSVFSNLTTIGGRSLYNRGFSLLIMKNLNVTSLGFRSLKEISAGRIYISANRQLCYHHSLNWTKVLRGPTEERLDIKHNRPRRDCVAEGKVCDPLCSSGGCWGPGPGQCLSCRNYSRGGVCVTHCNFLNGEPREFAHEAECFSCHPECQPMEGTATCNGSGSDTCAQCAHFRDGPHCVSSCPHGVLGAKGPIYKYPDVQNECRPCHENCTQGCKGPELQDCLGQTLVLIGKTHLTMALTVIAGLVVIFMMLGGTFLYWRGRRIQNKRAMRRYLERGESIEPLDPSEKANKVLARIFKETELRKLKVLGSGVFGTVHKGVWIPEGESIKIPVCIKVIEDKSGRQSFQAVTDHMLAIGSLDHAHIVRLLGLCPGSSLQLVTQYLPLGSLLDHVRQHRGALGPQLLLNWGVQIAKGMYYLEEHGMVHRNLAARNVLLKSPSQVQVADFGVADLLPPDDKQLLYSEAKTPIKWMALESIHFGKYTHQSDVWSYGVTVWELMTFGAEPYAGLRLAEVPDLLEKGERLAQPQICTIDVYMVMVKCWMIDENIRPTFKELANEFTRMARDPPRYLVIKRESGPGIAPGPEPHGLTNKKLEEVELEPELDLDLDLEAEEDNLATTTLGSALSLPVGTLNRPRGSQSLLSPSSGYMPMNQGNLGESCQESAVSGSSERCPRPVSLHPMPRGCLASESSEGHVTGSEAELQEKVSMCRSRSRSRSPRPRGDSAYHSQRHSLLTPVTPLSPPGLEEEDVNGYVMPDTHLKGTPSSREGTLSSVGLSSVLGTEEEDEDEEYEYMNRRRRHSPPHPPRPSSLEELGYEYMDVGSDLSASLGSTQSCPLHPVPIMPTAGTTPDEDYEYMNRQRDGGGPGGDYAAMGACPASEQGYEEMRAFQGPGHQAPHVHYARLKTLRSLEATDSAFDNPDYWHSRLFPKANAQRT
# STK11 (human) = STK11 (human) (UniProt Q15831); test: KINOMEscan competition binding; settings: compound 10.0 µM
# GSK3A (human) = GSK3A (human) (UniProt P49840); test: KINOMEscan competition binding; settings: compound 10.0 µM
# SGK110 (human) = SGK110 (human) (UniProt P0C264); test: KINOMEscan competition binding; settings: compound 10.0 µM
# PDPK1 (human) = PDPK1 (human) (UniProt O15530); test: KINOMEscan competition binding; settings: compound 10.0 µM
# PDPK1 (human), sequence (O15530 whole entry, looked up): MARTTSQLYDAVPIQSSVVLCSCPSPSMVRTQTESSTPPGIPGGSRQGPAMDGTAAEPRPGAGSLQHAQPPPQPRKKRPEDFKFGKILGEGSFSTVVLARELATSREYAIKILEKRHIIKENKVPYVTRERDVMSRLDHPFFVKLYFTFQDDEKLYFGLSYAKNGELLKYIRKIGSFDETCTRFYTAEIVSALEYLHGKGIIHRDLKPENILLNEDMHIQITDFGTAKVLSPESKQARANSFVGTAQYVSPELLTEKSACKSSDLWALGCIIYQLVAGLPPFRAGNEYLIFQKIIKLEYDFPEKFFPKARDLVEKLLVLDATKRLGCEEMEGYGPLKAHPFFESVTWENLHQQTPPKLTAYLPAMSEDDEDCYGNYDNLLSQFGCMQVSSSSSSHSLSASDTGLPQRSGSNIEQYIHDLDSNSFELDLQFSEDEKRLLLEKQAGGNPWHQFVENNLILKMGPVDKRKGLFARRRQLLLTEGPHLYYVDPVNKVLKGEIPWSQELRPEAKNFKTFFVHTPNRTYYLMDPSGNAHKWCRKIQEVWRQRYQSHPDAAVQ
# SIK1 (human) = SIK1 (human) (UniProt P57059); test: KINOMEscan competition binding; settings: compound 10.0 µM
# CDK16 (human) = CDK16 (human) (UniProt Q00536); test: KINOMEscan competition binding; settings: compound 10.0 µM
# CDK16 (human), sequence (Q00536 whole entry, looked up): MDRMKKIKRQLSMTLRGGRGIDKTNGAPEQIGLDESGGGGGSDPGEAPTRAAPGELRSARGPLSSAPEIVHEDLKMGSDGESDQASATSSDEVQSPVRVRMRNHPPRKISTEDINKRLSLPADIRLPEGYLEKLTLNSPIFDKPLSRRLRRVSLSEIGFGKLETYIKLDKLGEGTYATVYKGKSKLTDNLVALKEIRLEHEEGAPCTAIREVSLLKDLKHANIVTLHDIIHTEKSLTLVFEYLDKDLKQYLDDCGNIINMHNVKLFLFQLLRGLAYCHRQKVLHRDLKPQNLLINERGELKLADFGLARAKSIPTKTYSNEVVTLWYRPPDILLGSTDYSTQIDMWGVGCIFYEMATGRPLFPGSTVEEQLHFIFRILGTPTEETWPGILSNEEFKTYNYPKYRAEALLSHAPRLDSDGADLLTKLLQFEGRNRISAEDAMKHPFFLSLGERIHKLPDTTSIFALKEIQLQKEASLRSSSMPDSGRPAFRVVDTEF
# KIT (human) = KIT (human) (UniProt P10721); test: KINOMEscan competition binding; settings: compound 10.0 µM
# PRKAA1 (human) = PRKAA1 (human) (UniProt Q13131); test: KINOMEscan competition binding; settings: compound 10.0 µM
# MAPK13 (human) = MAPK13 (human) (UniProt O15264); test: KINOMEscan competition binding; settings: compound 10.0 µM
# RAF1 (human) = RAF1 (human) (UniProt P04049); test: KINOMEscan competition binding; settings: compound 10.0 µM
# EIF2AK1 (human) = EIF2AK1 (human) (UniProt Q9BQI3); test: KINOMEscan competition binding; settings: compound 10.0 µM
# ACVRL1 (human) = ACVRL1 (human) (UniProt P37023); test: KINOMEscan competition binding; settings: compound 10.0 µM
# STK32C (human) = STK32C (human) (UniProt Q86UX6); test: KINOMEscan competition binding; settings: compound 10.0 µM
# CSNK1E (human) = CSNK1E (human) (UniProt P49674); test: KINOMEscan competition binding; settings: compound 10.0 µM
# CSNK1E (human), sequence (P49674 whole entry, looked up): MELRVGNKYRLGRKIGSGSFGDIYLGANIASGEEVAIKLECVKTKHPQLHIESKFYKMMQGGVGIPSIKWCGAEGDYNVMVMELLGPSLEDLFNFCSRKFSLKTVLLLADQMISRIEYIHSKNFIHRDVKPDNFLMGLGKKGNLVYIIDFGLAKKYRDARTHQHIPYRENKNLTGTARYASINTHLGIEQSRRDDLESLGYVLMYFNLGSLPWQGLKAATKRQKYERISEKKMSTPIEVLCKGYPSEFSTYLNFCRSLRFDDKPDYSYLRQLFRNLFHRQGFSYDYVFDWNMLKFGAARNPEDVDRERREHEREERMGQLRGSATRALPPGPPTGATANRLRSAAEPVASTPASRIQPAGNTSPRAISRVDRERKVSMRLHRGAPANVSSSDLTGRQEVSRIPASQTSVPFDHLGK
# PIK3CG (human) = PIK3CG (human) (UniProt P48736); test: KINOMEscan competition binding; settings: compound 10.0 µM
# PLK1 (human) = PLK1 (human) (UniProt P53350); test: SelectScreen, TR FRET
# AURKB (human) = AURKB (human) (UniProt Q96GD4); test: SelectScreen, TR FRET
# DCLK2 (human) = DCLK2 (human) (UniProt Q8N568); test: SelectScreen, TR FRET
# MYLK (human) = MYLK (human) (UniProt Q15746); test: SelectScreen, TR FRET
# AURKA (human) = AURKA (human) (UniProt O14965); test: SelectScreen, TR FRET
# AURKA (human), sequence (O14965 whole entry, looked up): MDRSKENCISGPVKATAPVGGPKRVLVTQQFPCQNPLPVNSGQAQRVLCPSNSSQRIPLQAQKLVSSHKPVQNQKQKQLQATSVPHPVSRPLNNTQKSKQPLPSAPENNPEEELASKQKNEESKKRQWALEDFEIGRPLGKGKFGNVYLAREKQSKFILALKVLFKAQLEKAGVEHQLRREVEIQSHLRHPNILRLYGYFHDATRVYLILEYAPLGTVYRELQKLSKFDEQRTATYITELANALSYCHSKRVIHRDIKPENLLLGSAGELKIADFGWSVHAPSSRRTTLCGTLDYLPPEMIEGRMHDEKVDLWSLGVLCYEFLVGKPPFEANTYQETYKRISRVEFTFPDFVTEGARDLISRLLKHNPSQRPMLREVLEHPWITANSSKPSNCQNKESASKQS
# CHEK2 (human) = CHEK2 (human) (UniProt O96017); test: SelectScreen, TR FRET
# MKNK2 (human) = MKNK2 (human) (UniProt Q9HBH9); test: SelectScreen, TR FRET
# NUAK1 (human) = NUAK1 (human) (UniProt O60285); test: SelectScreen, TR FRET
# LRRK2 (human) = LRRK2 (human) (UniProt Q5S007); test: SelectScreen, TR FRET
structure (smiles),measurement,setting,value
COc1cc(C(=O)N2CCC(N3CCN(C)CC3)CC2)ccc1Nc1ncc2c(n1)N(C)c1ccccc1C(=O)N2C,residual activity,CDK5 (human),81%
same,"kinase still bound, per cent of control",HIPK3 (human),89%
same,"kinase still bound, per cent of control",EPHB4 (human),100%
same,"kinase still bound, per cent of control",[1],80%
same,"kinase still bound, per cent of control",STK17B (human),93%
same,"kinase still bound, per cent of control",NEK9 (human),100%
same,"kinase still bound, per cent of control",PRKCQ (human),100%
same,"kinase still bound, per cent of control",MAP3K9 (human),93%
same,residual activity,CDK14 (human),81%
same,"kinase still bound, per cent of control",HCK (human),100%
same,"kinase still bound, per cent of control",EIF2AK2 (human),84%
same,"kinase still bound, per cent of control",NUAK2 (human),47%
same,residual activity,PRKACB (human),100%
same,"kinase still bound, per cent of control",[2],94%
same,Kd,DCLK1 (human),0.005 µM
same,"kinase still bound, per cent of control",DCLK1 (human); compound 10.0 µM,4.2%
same,"kinase still bound, per cent of control",MAP4K4 (human),85%
same,"kinase still bound, per cent of control",ERBB3 (human),100%
same,"kinase still bound, per cent of control",STK11 (human),96%
same,"kinase still bound, per cent of control",GSK3A (human),100%
same,"kinase still bound, per cent of control",SGK110 (human),62%
same,"kinase still bound, per cent of control",PDPK1 (human),100%
same,"kinase still bound, per cent of control",SIK1 (human),77%
same,residual activity,CDK16 (human),96%
same,"kinase still bound, per cent of control",KIT (human),100%
same,"kinase still bound, per cent of control",PRKAA1 (human),51%
same,"kinase still bound, per cent of control",MAPK13 (human),72%
same,"kinase still bound, per cent of control",RAF1 (human),100%
same,"kinase still bound, per cent of control",EIF2AK1 (human),100%
same,"kinase still bound, per cent of control",ACVRL1 (human),100%
same,"kinase still bound, per cent of control",STK32C (human),100%
same,"kinase still bound, per cent of control",CSNK1E (human),95%
same,"kinase still bound, per cent of control",PIK3CG (human),15%
same,IC50,PLK1 (human),983 µM
same,IC50,AURKB (human),5.92 µM
same,IC50,DCLK2 (human),45 µM
same,IC50,MYLK (human),8.21 µM
same,IC50,AURKA (human),0.87 µM
same,IC50,CHEK2 (human),6.51 µM
same,IC50,MKNK2 (human),4.47 µM
same,IC50,NUAK1 (human),3.67 µM
same,IC50,LRRK2 (human),0.003 µM
